Patent US20030191144A1, “Compounds, compositions and methods for modulating beta-amyloid production” (Active Pass Pharmaceuticals, Inc., priority 2001, published 2003)

Tested on: Aβ42 production and/or release from SM-4 cells
Assay: Aβ42 ELISA of culture media from SM-4 cells
Format: cell-based
Settings: 16 hrs
Protocol: Cell Lines and Pharmacological Treatments. 293 EBNA cells (InVitrogen, Carlsbad, Calif.) stably transfected with Swedish mutant β-Amyloid Precursor Protein -695 (SM4 cells) were routinely maintained in DMEM supplemented with sodium pyruvate (1 mM) and 10% fetal bovine serum. Cells were seeded into poly-D-Lysine (SIGMA) coated 6-well plates at a density of 5-7×10^5 cells per well. Subsequently, the cells were rinsed in 1 ml of PBS and treated with 10-500 μM of pirinixic acid in serum-free/phenol red-free DMEM for 16 hours.
(§1) Aβ Detection and Standardization. After the pharmacological treatment, the exposure media was collected and supplemented with 10% sample treatment buffer (40 mM sodium phosphate (pH 7.4), 40 mM triethanolamine, 0.1% Triton X-100, 200 mM NaCl, 2 mM EGTA, 0.1% Sodium azide), and assayed for either Aβ40 or Aβ42 by a calorimetric ELISA as per the manufacturer's protocol (Biosource International Inc, California). The cells were lysed in 0.1% Triton X-100 in PBS supplemented with 5 μM propridium iodide (Molecular Probes, Eugene, Oreg.) and incubated at 37° C. for 30 minutes prior to measuring fluorescence. Aβ40 and Aβ42 were standardized against propridium iodide fluorescence as a measure of total cell number. […]
as §1, with “After” for “Aβ Detection and Standardization. After”
After the pharmacological treatment, the exposure media was collected and supplemented with 10% sample treatment buffer (40 mM sodium phosphate (pH 7.4), 40 mM triethanolamine, 0.1% Triton X-100, 200 mM NaCl, 2 mM EGTA, 0.1% Sodium azide), and assayed for either Aβ40 or Aβ42 by a colorimetric ELISA as per the manufacturer's protocol (Biosource International Inc, California). The cells were lysed in 0.1% Triton X-100 in PBS supplemented with 5 μM propridium iodide (Molecular Probes, Eugene, Oreg.) and incubated at 37° C. for 30 minutes prior to measuring fluorescence. Aβ40 and Aβ42 were standardized against propridium iodide fluorescence as a measure of total cell number.

Cc1cccc(Nc2cc(Cl)nc(SCC(=O)O)n2)c1C [pirinixic acid]
decrease in Aβ42 (50 μM, p<0.001): 15% | decrease in Aβ42 (500 μM): 60%
